Test results taken from patent US11891601B2, “Method to enhance the transcription regulation of SUPT4H on genes containing repetitive nucleotide sequences” (National Yang-Ming University, priority 2018, dated 2024).

Key:
[1] = test system: human RNases H; conditions: Budihas et al, 2005; read-out: IC50, inhibition of enzymatic activity of human RNases H; cited from earlier work
[2] = test system: R-loops in genes containing lengthy CAG repeats, including mutant HTT; assay: DIP assay of R-loops in genes with lengthy CAG repeats, including mutant HTT, in murine neuronal cells; type: cell-based, mouse; conditions: 30 μM tropolone for 12 hours in Hdh cells
Method: Yeast cells were collected after culturing in 2% galactose-containing medium for 12 hours, and then grinded by glass beads in the presence of 300 μl extraction buffer (10 mM Tris-HCl pH 8.0, 10 mM EDTA, 200 mM NaCl, 1% SDS, 2% Triton X-100, 25 units RNase inhibitor). The nucleic acid mixture was subjected to sonication (Bioruptor UCD-200) and extracted by phenol (pH 8.0). Purified chromatin DNA and RNA, with or without RNase H treatment for 90 minutes, was precipitated by monoclonal antibody S9.6 bound to protein G agarose beads. […] The RNA/DNA hybrid (R-loop) signal was analyzed by qPCR and the Quantitative-Comparative CT (MCT) program. In yeast experiments, a pair of primers (Primer-B F and Primer-B R) were used to quantify R-loop signal in the vicinity of CAG repeats and the primer set AMP was used as a control. […] For Hdh^Q7/Q7 and Hdh^Q111/Q111, mouse HTT DIP primer set was used to quantify R-loop signal of the CAG repeating region and Tubal a DIP primer set was included as a control. […]
Please refer to FIG. 7. […] RNA was extracted and analyzed by real-time RT-qPCR to measure the quantity of HTT, SUPT4H and snRNA U6. […] HTT, SUPT4H, TATA-box binding protein (TBP) were measured. […] Analogous to FIG. 7(C), the quantification of HTT protein levels is shown in bottom panel.

O=c1cccccc1O [Tropolone]
IC50 [1]: 5.7 µM
R-loops in genes containing lengthy CAG repeats, including mutant HTT [2]: able to increase R-loops
